{
  "source": "patent US20030104507A1",
  "about": "“Method for detection of ATP” (priority 2001, published 2003)",
  "key": {"[1]": {"system": "LucPpe2m146", "assay": "Stability of reagent composition with LucPpe2m146 and detergent (RT, pH 7.0)", "assay_type": "biochemical, Photuris pennsylvanica", "description": "(§1) The detergents used for inhibition of endogenous ATPase activity in a sample also affect activity of luciferase. […] It is ultimately the extended stability of a reagent composition, comprising an ATPase inhibitor and a luciferase enzyme, which provides a composition useful for measuring ATP, in a sample or samples, over an extended period of time.\n(§2) In this experiment, the stability of a reagent composition comprising wild type LucPpy was compared to the stability of a reagent composition comprising LucPpe2m146 at about 23° C. (room temperature). The various reagent compositions had varying detergent concentrations.\n(§3) Two solutions were created as listed below. One contained the luciferase, luciferin, MgSO4, and buffer (reagent composition). The other solution contained media plus ATP (media solution).\n(§4) 50 μg/ml enzyme (LucPpy is Promega catalog #E170A)\n(§5) Detergent (at various concentrations, see table below)\n(§6) For each reagent composition, all ingredients except the luciferase enzyme were assembled; the enzyme was then added immediately before the first luminescence reading was taken. Immediately after addition of enzyme to each reagent composition and for various timepoints thereafter, 100 μl aliquots of the reagent composition were added to wells of a 96-well microtitre luminometer plate in triplicate. To these were added 100 μl Media Solution containing the ATP. Luminescence was then immediately read on a Dynex MLX microtitreplate luminometer, 0.5 second reads per well. The average relative light unit values as well as the reaction half lives are listed below in Table I and the percent of original luminescence remaining at each timepoint is listed in Table J below. The timepoint at the top of the column indicates the time at which the first rlu measurement for the samples in that column was read. […] Times listed in Table I are the same for Table J. The values for sulfobetaine and for CTAB were generated on different days, they are presented with the control values generated in the same experiment."}, "[2]": {"target": "T1, LucPpy (Photinus pyralis, UniProt P08659)", "T1 construct": "purchased Promega E170A", "assay": "Stability of reagent composition with LucPpy and detergent (RT, pH 7.0)", "assay_type": "biochemical", "settings": "for Average Relative Light Units / Percent of Luminescence Remaining: LucPpy", "description": "as §1, §2, §3, §4, §5, §6"}},
  "data": [
    {"smiles": "CCCCCCCCCCCC[N+](C)(C)C.[Br-]", "note": "[DTAB, dodecyltrimethylammonium bromide]", "values": [
      {"measurement": "Average Relative Light Units", "setting": "[1]; LucPpe2m146, 0.02%, 1.0 min (head r67)", "value": 28730.17, "unit": "rlu"},
      {"measurement": "Percent of Luminescence Remaining", "setting": "[1]; LucPpe2m146, 0.02%, 1.0 min (times of Table I r67)", "value": 100.00, "unit": "%"},
      {"measurement": "Average Relative Light Units", "setting": "[1]; LucPpe2m146, 0.02%, 34 min (head r67)", "value": 28596.30, "unit": "rlu"},
      {"measurement": "Percent of Luminescence Remaining", "setting": "[1]; LucPpe2m146, 0.02%, 34 min (times of Table I r67)", "value": 99.53, "unit": "%"},
      {"measurement": "Average Relative Light Units", "setting": "[1]; LucPpe2m146, 0.02%, 65 min (head r67)", "value": 28651.97, "unit": "rlu"},
      {"measurement": "Percent of Luminescence Remaining", "setting": "[1]; LucPpe2m146, 0.02%, 65 min (times of Table I r67)", "value": 99.73, "unit": "%"},
      {"measurement": "Average Relative Light Units", "setting": "[1]; LucPpe2m146, 0.02%, 115 min (head r67)", "value": 26062.30, "unit": "rlu"},
      {"measurement": "Percent of Luminescence Remaining", "setting": "[1]; LucPpe2m146, 0.02%, 115 min (times of Table I r67)", "value": 90.71, "unit": "%"},
      {"measurement": "Average Relative Light Units", "setting": "[1]; LucPpe2m146, 0.02%, 175 min (head r67)", "value": 27941.73, "unit": "rlu"},
      {"measurement": "Percent of Luminescence Remaining", "setting": "[1]; LucPpe2m146, 0.02%, 175 min (times of Table I r67)", "value": 97.26, "unit": "%"},
      {"measurement": "Average Relative Light Units", "setting": "[1]; LucPpe2m146, 0.02%, 238 min (head r67)", "value": 27677.9, "unit": "rlu"},
      {"measurement": "Percent of Luminescence Remaining", "setting": "[1]; LucPpe2m146, 0.02%, 238 min (times of Table I r67)", "value": 96.34, "unit": "%"},
      {"measurement": "Average Relative Light Units", "setting": "[1]; LucPpe2m146, 0.02%, 286 min (head r67)", "value": 27808.3, "unit": "rlu"},
      {"measurement": "Percent of Luminescence Remaining", "setting": "[1]; LucPpe2m146, 0.02%, 286 min (times of Table I r67)", "value": 96.79, "unit": "%"},
      {"measurement": "Average Relative Light Units", "setting": "[1]; LucPpe2m146, 0.1%, 1.0 min (head r54)", "value": 20132.47, "unit": "rlu"},
      {"measurement": "Percent of Luminescence Remaining", "setting": "[1]; LucPpe2m146, 0.1%, 1.0 min (times of Table I r54)", "value": 100.00, "unit": "%"},
      {"measurement": "Average Relative Light Units", "setting": "[1]; LucPpe2m146, 0.1%, 34 min (head r54)", "value": 20574.63, "unit": "rlu"},
      {"measurement": "Percent of Luminescence Remaining", "setting": "[1]; LucPpe2m146, 0.1%, 34 min (times of Table I r54)", "value": 102.20, "unit": "%"},
      {"measurement": "Average Relative Light Units", "setting": "[1]; LucPpe2m146, 0.1%, 65 min (head r54)", "value": 20800.80, "unit": "rlu"},
      {"measurement": "Percent of Luminescence Remaining", "setting": "[1]; LucPpe2m146, 0.1%, 65 min (times of Table I r54)", "value": 103.32, "unit": "%"},
      {"measurement": "Average Relative Light Units", "setting": "[1]; LucPpe2m146, 0.1%, 115 min (head r54)", "value": 19908.30, "unit": "rlu"},
      {"measurement": "Percent of Luminescence Remaining", "setting": "[1]; LucPpe2m146, 0.1%, 115 min (times of Table I r54)", "value": 98.89, "unit": "%"},
      {"measurement": "Average Relative Light Units", "setting": "[1]; LucPpe2m146, 0.1%, 175 min (head r54)", "value": 20760.93, "unit": "rlu"},
      {"measurement": "Percent of Luminescence Remaining", "setting": "[1]; LucPpe2m146, 0.1%, 175 min (times of Table I r54)", "value": 103.12, "unit": "%"},
      {"measurement": "Average Relative Light Units", "setting": "[1]; LucPpe2m146, 0.1%, 238 min (head r54)", "value": 19758.4, "unit": "rlu"},
      {"measurement": "Percent of Luminescence Remaining", "setting": "[1]; LucPpe2m146, 0.1%, 238 min (times of Table I r54)", "value": 98.14, "unit": "%"},
      {"measurement": "Average Relative Light Units", "setting": "[1]; LucPpe2m146, 0.1%, 286 min (head r54)", "value": 19659.10, "unit": "rlu"},
      {"measurement": "Percent of Luminescence Remaining", "setting": "[1]; LucPpe2m146, 0.1%, 286 min (times of Table I r54)", "value": 97.65, "unit": "%"},
      {"measurement": "Average Relative Light Units", "setting": "[1]; LucPpe2m146, 0.5%, 15 min (head r41)", "value": 5.496, "unit": "rlu"},
      {"measurement": "Percent of Luminescence Remaining", "setting": "[1]; LucPpe2m146, 0.5%, 15 min (times of Table I r41)", "value": 100.00, "unit": "%"},
      {"measurement": "Average Relative Light Units", "setting": "[1]; LucPpe2m146, 0.5%, 72 min (head r41)", "value": 3.141, "unit": "rlu"},
      {"measurement": "Percent of Luminescence Remaining", "setting": "[1]; LucPpe2m146, 0.5%, 72 min (times of Table I r41)", "value": 57.16, "unit": "%"},
      {"measurement": "Average Relative Light Units", "setting": "[1]; LucPpe2m146, 0.5%, 124 min (head r41)", "value": 2.769, "unit": "rlu"},
      {"measurement": "Percent of Luminescence Remaining", "setting": "[1]; LucPpe2m146, 0.5%, 124 min (times of Table I r41)", "value": 50.39, "unit": "%"},
      {"measurement": "Average Relative Light Units", "setting": "[1]; LucPpe2m146, 0.5%, 190 min (head r41)", "value": 2.563, "unit": "rlu"},
      {"measurement": "Percent of Luminescence Remaining", "setting": "[1]; LucPpe2m146, 0.5%, 190 min (times of Table I r41)", "value": 46.64, "unit": "%"},
      {"measurement": "Average Relative Light Units", "setting": "[1]; LucPpe2m146, 0.5%, 251 min (head r41)", "value": 2.766, "unit": "rlu"},
      {"measurement": "Percent of Luminescence Remaining", "setting": "[1]; LucPpe2m146, 0.5%, 251 min (times of Table I r41)", "value": 50.32, "unit": "%"},
      {"measurement": "Half-life of Luminescence Activity", "setting": "[2]; Common firefly luciferase (P. pyralis), conc. 0.500", "value": "no activity"},
      {"measurement": "Average Relative Light Units", "setting": "[2]; 0.02%, 0.75 min (head r32)", "value": 4513.320, "unit": "rlu"},
      {"measurement": "Percent of Luminescence Remaining", "setting": "[2]; 0.02%, 0.75 min (times of Table I r32)", "value": 100.00, "unit": "%"},
      {"measurement": "Average Relative Light Units", "setting": "[2]; 0.02%, 38 min (head r32)", "value": 3761.940, "unit": "rlu"},
      {"measurement": "Percent of Luminescence Remaining", "setting": "[2]; 0.02%, 38 min (times of Table I r32)", "value": 99.53, "unit": "%"},
      {"measurement": "Average Relative Light Units", "setting": "[2]; 0.02%, 70 min (head r32)", "value": 3363.410, "unit": "rlu"},
      {"measurement": "Percent of Luminescence Remaining", "setting": "[2]; 0.02%, 70 min (times of Table I r32)", "value": 74.52, "unit": "%"},
      {"measurement": "Average Relative Light Units", "setting": "[2]; 0.02%, 94 min (head r32)", "value": 3229.340, "unit": "rlu"},
      {"measurement": "Percent of Luminescence Remaining", "setting": "[2]; 0.02%, 94 min (times of Table I r32)", "value": 71.55, "unit": "%"},
      {"measurement": "Average Relative Light Units", "setting": "[2]; 0.02%, 122 min (head r32)", "value": 3082.030, "unit": "rlu"},
      {"measurement": "Percent of Luminescence Remaining", "setting": "[2]; 0.02%, 122 min (times of Table I r32)", "value": 68.2, "unit": "%"},
      {"measurement": "Average Relative Light Units", "setting": "[2]; 0.1%, 0.75 min (head r18)", "value": 0.307, "unit": "rlu"},
      {"measurement": "Percent of Luminescence Remaining", "setting": "[2]; 0.1%, 0.75 min (times of Table I r18)", "value": 100.00, "unit": "%"},
      {"measurement": "Average Relative Light Units", "setting": "[2]; 0.1%, 10 min (head r18)", "value": 0.009, "unit": "rlu"},
      {"measurement": "Percent of Luminescence Remaining", "setting": "[2]; 0.1%, 10 min (times of Table I r18)", "value": 2.93, "unit": "%"},
      {"measurement": "Average Relative Light Units", "setting": "[2]; 0.1%, 36 min (head r18)", "value": 0.005, "unit": "rlu"},
      {"measurement": "Percent of Luminescence Remaining", "setting": "[2]; 0.1%, 36 min (times of Table I r18)", "value": 1.55, "unit": "%"},
      {"measurement": "Average Relative Light Units", "setting": "[2]; 0.5%, 0.75 min (head r5)", "value": 0.018, "unit": "rlu"},
      {"measurement": "Percent of Luminescence Remaining", "setting": "[2]; 0.5%, 0.75 min (times of Table I r5)", "value": 100.00, "unit": "%"}
    ]}
  ]
}
